In patent US20130053425A1, “Method for Lowering Intraocular Pressure Using Gap Junction Blockers” (priority 2011, published 2013):

Experiments:
ciliary epithelium [1] = assay: In vitro short-circuit current across the ciliary epithelium (rabbit)
ciliary epithelium [2] = assay: In vitro short-circuit current across the ciliary epithelium (ox)
[3] = test system: porcine ciliary epithelium; assay: Fluid flow (FF) across the ciliary epithelium in modified Ussing-type chamber; details: aqueous addition of 3.5 mM heptanol, 25° C., n=6 (FIG. 2)
Description: The reasons being that firstly, no information was available at the time to teach the preparation an intact ciliary epithelium, which is required for fluid flow measurement, and secondly, even when an intact ciliary epithelium was used, there was no device available that would enable measurement of fluid flow across the ciliary epithelium. In view of this, the inventors invested a great deal of effort into developing a modified Ussing-type chamber, which enables fluid flow (FF) and potential difference across the ciliary epithelium to be measured simultaneously. Fundamentally, the Ussing-type chamber includes two hemi-chambers, between which an excised preparation of ciliary epithelium is mounted. […] The graduated capillary can be used to monitor the change in fluid volume inside the second hemi-chamber throughout the experiment, which is then calculated as FF rate. […] At a later stage, the inventors further incorporated electrodes into the FF chamber to enable both electrical parameters and FF to be monitored simultaneously. […] (A) The calculated FF rate in the blood-to-aqueous direction during the course of the experiment. (B) PD recorded simultaneously with the measurement of the capillary levels.

[4] = Topical administration of heptanol to rabbit eyes, intraocular pressure (IOP) in vivo; details: topical administration of 1.0% heptanol to the eyes (FIG. 1)
Description: FIG. 1 illustrates the effects of topical administration of 1.0% heptanol to rabbit eyes.

ciliary epithelium [5] = assay: In vitro short-circuit current across the ciliary epithelium (pig)

CCCCCCCO [heptanol]
reduction of short-circuit current across the ciliary epithelium (ciliary epithelium [1]): ~80% | reduction of short-circuit current across the ciliary epithelium (ciliary epithelium [2]): ~80% | inhibition of fluid flow across the ciliary epithelium [3]: up to 78% | effectiveness in lowering intraocular pressure (IOP) [4]: inconclusive results | reduction of short-circuit current across the ciliary epithelium (ciliary epithelium [5]): ~80%
